This passage reports MIC50 and MIC90 results from ChEMBL document CHEMBL1149222, “Synthesis and in vitro antimycobacterial activity of novel 3-(1H-pyrrol-1-yl)-2-oxazolidinone analogues of PNU-100480” (2004).

Common to all, as to format: functional
Assay [1] concerns Mycobacterium tuberculosis. The assay can be described thus: In vitro anti-mycobacterial activity against pirazynamide resistant Mycobacterium tuberculosis ATCC 35828 was determined.
In assay [2] the test system is Mycobacterium tuberculosis. The assay is described as follows: In vitro anti-mycobacterial activity against streptomycin resistant Mycobacterium tuberculosis ATCC 35820 was determined.
Assay [3] relates to Mycobacterium tuberculosis. The assay can be described thus: In vitro anti-mycobacterial activity against ethambutol resistant Mycobacterium tuberculosis ATCC 35837 determined by the MTT method.
Assay [4] relates to Mycobacterium tuberculosis. The assay can be described thus: In vitro anti-mycobacterial activity against pirazynamide resistant Mycobacterium tuberculosis ATCC 35828 determined by the MTT method.
In assay [5] the test system is Mycobacterium tuberculosis. The assay is described as follows: In vitro anti-mycobacterial activity against streptomycin resistant Mycobacterium tuberculosis ATCC 35820 determined by the MTT method. A general note: Tetrazolium assays rely on reduction of a dye to a coloured formazan, in cell work by metabolically active cells.
In assay [6] the test system is Mycobacterium tuberculosis. The assay can be described thus: In vitro anti-mycobacterial activity against ethambutol resistant Mycobacterium tuberculosis ATCC 35837 was determined.

Converted amounts (≈) assume the structure as drawn. A value given as a limit tells only on which side of the number the result lay.

`CC(=O)NC[C@H]1CN(c2ccn(-c3cccc(F)c3)c2)C(=O)O1`: the MIC50 worked out at 18.4 µM (≈ 5.84 µg/mL) in assay [1], 0.9 µM (≈ 0.286 µg/mL) in assay [2] and 7 µM (≈ 2.22 µg/mL) in assay [6]. The results for the MIC90 in assay [3], in assay [4] and in assay [5] were 24.9 µM (≈ 7.9 µg/mL), 63.9 µM (≈ 20.3 µg/mL) and > 100 µM, respectively.
Turning to `CC(=O)NC[C@H]1CN(c2ccn(-c3ccccc3)c2)C(=O)O1`, the MIC50 in assay [1] amounted to 50.3 µM (≈ 15.1 µg/mL); in assay [2], 5.6 µM (≈ 1.68 µg/mL); in assay [6], 23.8 µM (≈ 7.12 µg/mL). Moreover, the MIC90 was 100 µM (≈ 29.9 µg/mL) in assay [3], > 100 µM in assay [4] and ≥ 100 µM in assay [5].
As for `CC(=O)NC[C@H]1CN(c2ccn(N3CCOCC3)c2)C(=O)O1`, the MIC50 in assay [1], in assay [2] and in assay [6] was > 100 µM each time.
On to `CC(=O)NC[C@H]1CN(c2ccn(-c3ccccc3F)c2)C(=O)O1`, for which the MIC50 worked out at 10 µM (≈ 3.17 µg/mL) in assay [1], 1.1 µM (≈ 0.349 µg/mL) in assay [2] and 7 µM (≈ 2.22 µg/mL) in assay [6]. In addition, the values for the MIC90 in assay [3], in assay [4] and in assay [5] were 23.9 µM (≈ 7.58 µg/mL), 58.7 µM (≈ 18.6 µg/mL) and 45 µM (≈ 14.3 µg/mL), respectively.
On to `CC(=O)NC[C@H]1CN(c2ccn(-c3ccc(N4CCOCC4)c(F)c3)c2)C(=O)O1`, for which the MIC50 is > 100 µM in assay [1], 4.9 µM (≈ 1.97 µg/mL) in assay [2] and 63.5 µM (≈ 25.6 µg/mL) in assay [6]. The MIC90 in assay [4] and in assay [5] was > 100 µM in each case.
For `CC(=O)NC[C@H]1CN(c2ccn(-c3ccc(F)cc3)c2)C(=O)O1`, the MIC50 in assay [1] is 21.5 µM (≈ 6.82 µg/mL); in assay [2] it was 0.8 µM (≈ 0.254 µg/mL); in assay [6] it was 13.5 µM (≈ 4.28 µg/mL). The results for the MIC90 in assay [3], in assay [4] and in assay [5] were 56.6 µM (≈ 18 µg/mL), 73.7 µM (≈ 23.4 µg/mL) and 39.9 µM (≈ 12.7 µg/mL), respectively.
On to `NNC(=O)c1ccncc1` [ISONIAZID], for which the figures for the MIC50 in assay [1], in assay [2] and in assay [6] were 0.1 µM (≈ 0.0137 µg/mL), 1.3 µM (≈ 0.178 µg/mL) and 0.2 µM (≈ 0.0274 µg/mL), respectively. Further, the MIC90 in assay [3] was 13 µM (≈ 1.78 µg/mL); in assay [4], > 100 µM; in assay [5] it was > 100 µM.
In the case of `CC(=O)NC[C@H]1CN(c2ccc(N3CCSCC3)c(F)c2)C(=O)O1` [SUTEZOLID], the MIC50 in assay [1] was 0.1 µM (≈ 0.0353 µg/mL); in assay [2], 5.6 µM (≈ 1.98 µg/mL); in assay [6], 0.06 µM (≈ 0.0212 µg/mL). In addition, the MIC90 came out at 0.3 µM (≈ 0.106 µg/mL) in assay [3], 0.7 µM (≈ 0.247 µg/mL) in assay [4] and 0.4 µM (≈ 0.141 µg/mL) in assay [5].

The MIC50 is the lowest concentration that inhibits either 50% of growth or 50% of the strains tested, depending on the study. Usually MIC90 stands for the lowest concentration that inhibits either 90% of growth or 90% of the strains tested, depending on the study. Read a low MIC90 as higher susceptibility.
